Reference: patent US10212934B2, “Pesticidal compositions” (BASF AGRO B.V., priority 2014, dated 2019)
Read-outs that look alike come from different tables or passages of the source.

How the values were obtained:
Format in all cases: cell-based
Conditions in all cases: 7 days after inoculation
[1] = system: Botrytis cinerea; test: M2 microtiterplate test, grey mold Botrytis cinerea (Botrci)
[2] = system: Phytophthora infestans
[3] = system: Septoria tritici; test: M4 microtiter test, leaf blotch on wheat caused by Septoria tritici (Septtr)
[4] = system: Pyricularia oryzae
[5] = system: Leptosphaeria nodorum; test: M6 microtiter test, wheat leaf spots caused by Leptosphaeria nodorum (Leptno)
[6] = system: Alternaria solani; test: M5 microtiter test, early blight caused by Alternaria solani (Alteso)

Work on Cc1cc(C(F)(F)F)nn1CC(=O)N1CCC(c2nc(C3=NOC(c4c(F)cccc4F)C3)cs2)CC1 (racemic) [Oxathiapiprolin (II-1), 1-(4-{4-[(5 RS)-5-(2,6-difluorophenyl)-4,5-dihydro-1,2-oxazol-3-yl]-1,3-thiazol-2-yl}-1-piperidyl)-2-[5-methyl-3-(trifluoromethyl)-1H-pyrazol-1-yl]ethanone] yielded an Observed efficacy ([1]; 16 ppm) of 4% and an Observed efficacy ([1]; 63 ppm) of 23%.

CC(O)(Cn1cncn1)c1ccc(Oc2ccc(Cl)cc2)cc1C(F)(F)F (centres unmarked) [I-3, 2-[4-(4-chlorophenoxy)-2-(trifluoromethyl)phenyl]-1-(1,2,4-triazol-1-yl)propan-2-ol] was tested, and the Observed efficacy ([2]; 0.063 ppm) was 12%, the Observed efficacy ([3]; 0.00025 ppm) was 28% and the Observed efficacy ([4]; 0.25 ppm) was 10%. For the same compound, the Observed efficacy ([1]; 0.063 ppm) was 42%, the Observed efficacy ([5]; 0.016 ppm) was 35% and the Observed efficacy ([6]; 0.001 ppm) was 9%.

For CC(c1ccc(C(F)(F)F)nc1)S(C)(=O)=NC#N (centres unmarked) [Sulfoxaflor (II-3), [methyl(oxo){1-[6-(trifluoromethyl)-3-pyridyl]ethyl}-Λ^6-sulfanylidene]cyanamide], the Observed efficacy ([5]; 16 ppm (commercial finished formulation diluted with water)) was 0%.

For CC(C)(C)C(O)C(Oc1ccc(Cl)cc1)n1cncn1 (centres unmarked) [Triadimenol (II-2), (1 RS,2 RS;1 RS,2 SR)-1-(4-chlorophenoxy)-3,3-dimethyl-1-(1H-1,2,4-triazol-1-yl)butan-2-ol], the Observed efficacy ([1]; 4 ppm) was 39%.

In the case of O=c1[c-](-c2cccc(C(F)(F)F)c2)c(=O)[n+](Cc2cncnc2)c2ccccn12 [Triflumezopyrim (II-7), 3,4-dihydro-2,4-dioxo-1-(pyrimidin-5-ylmethyl)-3-(α,α,α-trifluoro-m-tolyl)-2H-pyrido[1,2-a]pyrimidin-1-ium-3-ide], the Observed efficacy ([6]; 0.25 ppm) is reported as 36%.

Work on CNC(=O)Oc1cc(C)c(SC)c(C)c1 [Methiocarb (II-4), 4-methylthio-3,5-xylyl methylcarbamate] yielded an Observed efficacy ([2]; 63 ppm) of 51%, an Observed efficacy ([3]; 0.063 ppm) of 6% and an Observed efficacy ([4]; 63 ppm) of 36%.
